We go through one compound from ChEMBL document CHEMBL4354877, “MymA Bioactivated Thioalkylbenzoxazole Prodrug Family Active against Mycobacterium tuberculosis” (J Med Chem, 2020).

Data set [1] relates to Mycobacterium tuberculosis. The experiment in a line: Antimycobacterial activity against Mycobacterium tuberculosis H37Rv intracellular forms infected in human THP1 cells assessed as inhibition of microbial growth incubated for 5 days by luciferase reporter gene assay. Format: functional. The note with it: THP-1, 120 h. (In general: Reporter assays use an easily measured gene product as a stand-in for the process of interest.)

The subject of data set [2] is Mycobacterium tuberculosis. The experiment in a line: Antimycobacterial activity against Mycobacterium tuberculosis extracellular forms assessed as inhibition of microbial growth. Format: functional.
Another data set deals with HepG2. The experiment in a line: Cytotoxicity in human HepG2 cells assessed as reduction in cell viability incubated for 48 hrs by Cell-titer Glo kit based assay. As to conditions: HepG2, 48 h.
The subject of the next data set is THP-1. The experiment in a line: Cytotoxicity in human THP1 cells assessed as reduction in cell viability incubated for 5 days hrs by ATPLite assay. Type of data set: cell-based. As to conditions: THP-1, 120 h. A general note: Cellular ATP, detected with luciferase, serves as a proxy for viable cell number.
Data set [3] in a line: Kinetic aqueous solubility in pH 7.4 PBS incubated for 1 hr by CLND assay. Format: physicochemical. As to conditions: read-out: Kinetic_solubility.
Data set [4] can be described thus: Solubility in pH 6.5 FaSSIF incubated for 4 hrs by HPLC-UV based assay. Format: physicochemical.
Another data set deals with Hepatocyte. The experiment in a line: Cytotoxicity in human primary hepatocytes assessed as reduction in cell viability up to 100 uM incubated for 72 hrs by MTT assay. Format: cell-based.
Data set [5] deals with Mycobacterium tuberculosis. The experiment in a line: Antimycobacterial activity against Mycobacterium tuberculosis H37Rv infected in C57BL/6 mouse model of acute infection assessed as reduction in mycobacterial load in lung at 200 mg/kg dosed once per day for 8 days co-dosed with 50 mg/kg/day CYP inhibitor ABT. Format: functional, organism-based.
A short description of data set [6]: Intrinsic clearance in human liver microsomes at 0.5 uM incubated for 45 mins in presence of NADPH by LC-MS/MS analysis. Type of data set: ADME, Microsome. The note with it: 0.75 h. (In general: Liver microsomes are a subcellular fraction often used to study metabolism.)
Data set [7] is described as follows: Intrinsic clearance in mouse liver microsomes at 0.5 uM incubated for 45 mins in presence of NADPH by LC-MS/MS analysis. Format: ADME, Microsome. The note with it: 0.75 h.
The nature of data set [8]: Stability in human liver microsomes assessed as GSH-conjugates formation at 25 uM incubated for 60 mins in presence of NADPH and GSH by LC-MS/MS analysis. Format: ADME, Microsome. As to conditions: 1 h.
Data set [9] addresses T1, Cytochrome P450 3A4 (Homo sapiens, UniProt P08684). The experiment in a line: Inhibition of CYP3A4 (unknown origin) in absence of cofactor. Type of data set: ADME.
Data set [10] has as its target T1, Cytochrome P450 3A4. The experiment in a line: Inhibition of CYP3A4 (unknown origin) in presence of cofactor. Format: ADME.
Data set [11] concerns Mycobacterium tuberculosis. The experiment in a line: Antimycobacterial activity against Mycobacterium tuberculosis H37Rv assessed as inhibition of microbial growth incubated for 6 days by alamar blue resazurin assay. The note with it: 144 h. Type of data set: functional.
The nature of data set [12]: Permeability at pH 7.4 incubated for 4 hrs by PAMPA method. Format: ADME. The note with it: read-out: permeability.

Values after ≈ are worked out from the molar mass of the structure shown. Active and inactive are the calls of the source. The calls are words filed in the database; no cut-off is given here.

T1 sequence (P08684 whole entry): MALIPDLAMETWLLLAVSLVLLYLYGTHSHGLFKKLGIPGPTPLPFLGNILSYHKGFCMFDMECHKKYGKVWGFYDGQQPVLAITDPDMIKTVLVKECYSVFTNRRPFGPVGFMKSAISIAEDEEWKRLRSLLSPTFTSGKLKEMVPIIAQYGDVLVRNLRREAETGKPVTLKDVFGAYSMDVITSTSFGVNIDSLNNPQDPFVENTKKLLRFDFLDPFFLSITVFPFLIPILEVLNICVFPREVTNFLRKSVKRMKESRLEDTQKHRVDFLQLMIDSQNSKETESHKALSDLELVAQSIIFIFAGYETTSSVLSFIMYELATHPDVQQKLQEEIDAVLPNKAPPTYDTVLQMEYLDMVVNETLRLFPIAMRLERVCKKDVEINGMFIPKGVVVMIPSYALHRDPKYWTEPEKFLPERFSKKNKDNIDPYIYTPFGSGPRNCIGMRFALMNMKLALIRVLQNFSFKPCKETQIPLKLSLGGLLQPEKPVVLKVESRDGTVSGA

In general, IC90 refers to the concentration needed for an effect of 90%. In general, MIC refers to the least concentration at which growth counts as inhibited. One may read the IC50 as the midpoint of a concentration-inhibition curve. What is called solubility is the concentration that dissolves in the medium under given conditions. Consider `O=C(CCSc1nc2cc(Cl)ccc2o1)N1CCCC1`, for which the IC90 in [1] stood at 2.8 µM. Besides, the MIC in data set [2] and in data set [11] was 10 µM throughout. The IC50 in the data set on HepG2 is > 100 µM; in the data set with THP-1 it was > 50 µM; on Cytochrome P450 3A4 [9], > 39.8 µM; on Cytochrome P450 3A4 [10], > 39.8 µM. Besides, the solubility kinetic at 1 h in data set [3] is > 362 µM. Also, the solubility at 4 h in data set [4] was determined as 8 µg/mL (≈ 25.7 µM). The Activity result in the data set on Hepatocyte is given as “Non-Toxic”. For the same compound, in data set [5], the outcome was inactive. The results for the CLH in [6] and in data set [7] were 5.8 mL/min/g and 131 to 132 mL/min/g, respectively. Further, in data set [8], the Stability entry is reported as “Stable”. Also, in [12], the Papp at 4 h was found to be 78 ×10⁻⁶ cm/s.
